We go through 16 compounds from US20260108527A1, “POLO LIKE KINASE 4 INHIBITORS” (ORIC Pharmaceuticals, Inc., priority 2022, published 2026).

One assay has as its system CHP134. Kind of assay: CHP134 CellTiter-Glo (CTG) Assay. It is filed as cell-based. The following applies: Homo sapiens, CHP-134, 120 h; viable cells by CellTiter-Glo after 5 days. The method in brief: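 CHP134 cells were seeded at 200 cells/well for 16 h, then treated in quadruplicate with nine-point 1:3 serial dilutions at 37 °C, 5% CO2. Viable cells were read by CellTiter-Glo luminescence after 5 days, and IC50 values were derived from the dose-response curves.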

Assay [1] addresses T1, human recombinant Aurora B (Homo sapiens, UniProt Q96GD4).
T1 construct: purchased ThermoFisher PR9210B
Kind of assay: Aurora B Kinase Biochemical Assay (ADP-Glo). The following applies: selectivity ratio; Aurora B 10 nM, 114 μM ATP. The method in brief:
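Aurora B (10 nM) was pre-incubated with compound for 15 min, then reacted with 114 μM ATP and 4.7 μM MBP for 2 h at RT in 50 mM HEPES pH 7.5, 10 mM MgCl2, 1 mM DTT. ADP was read by ADP-Glo luminescence, and IC50 values came from four-parameter fits of 11-point, 3-fold titrations in duplicate.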

The target of the next assay is T2, human recombinant PLK4 (Homo sapiens, UniProt O00444).
T2 construct: purchased ThermoFisher PV6396
T2 sequence (O00444 1-970): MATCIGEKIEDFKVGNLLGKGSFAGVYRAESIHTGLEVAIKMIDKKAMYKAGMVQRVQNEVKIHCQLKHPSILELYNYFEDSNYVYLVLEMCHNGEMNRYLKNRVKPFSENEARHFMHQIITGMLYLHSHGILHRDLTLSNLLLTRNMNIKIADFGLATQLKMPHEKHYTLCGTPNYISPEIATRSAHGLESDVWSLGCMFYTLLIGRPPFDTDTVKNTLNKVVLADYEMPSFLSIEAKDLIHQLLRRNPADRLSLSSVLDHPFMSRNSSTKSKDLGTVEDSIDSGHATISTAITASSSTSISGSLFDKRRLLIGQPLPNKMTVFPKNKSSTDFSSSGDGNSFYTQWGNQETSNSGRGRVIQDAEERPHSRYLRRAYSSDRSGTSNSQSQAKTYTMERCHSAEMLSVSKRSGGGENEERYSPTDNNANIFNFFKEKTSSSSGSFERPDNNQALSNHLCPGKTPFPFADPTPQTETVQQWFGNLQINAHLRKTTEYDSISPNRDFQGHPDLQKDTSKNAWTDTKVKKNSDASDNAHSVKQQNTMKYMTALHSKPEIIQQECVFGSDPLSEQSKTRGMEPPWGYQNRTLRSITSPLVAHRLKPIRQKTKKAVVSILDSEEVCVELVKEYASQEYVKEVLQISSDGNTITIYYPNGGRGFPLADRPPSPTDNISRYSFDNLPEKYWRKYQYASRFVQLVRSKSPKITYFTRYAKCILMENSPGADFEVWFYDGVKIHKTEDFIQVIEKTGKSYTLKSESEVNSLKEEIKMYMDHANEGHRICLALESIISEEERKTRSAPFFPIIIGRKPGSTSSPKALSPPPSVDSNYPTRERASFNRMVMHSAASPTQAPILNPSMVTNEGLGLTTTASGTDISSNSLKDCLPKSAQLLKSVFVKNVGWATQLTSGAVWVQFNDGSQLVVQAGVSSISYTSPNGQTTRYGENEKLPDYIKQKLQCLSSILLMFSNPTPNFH
Kind of assay: PLK4 Biochemical Assay (ADP-Glo). Particulars: 0.5 nM PLK4, 8.0 μM ATP, 4.7 μM MBP, 6 hours at RT. The gist of the method: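 PLK4 at 1.0 nM in HEPES pH 7.5 buffer with 10 mM MgCl2, 1 mM EGTA, 1 mM DTT, preincubated 15 min at RT with compound. ADP formed quantified by ADP-Glo luminescence after ATP depletion. IC50 from four-parameter non-linear regression.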
(ADP-Glo turns the ADP formed in a reaction into a luminescent signal.)

T1 sequence (Q96GD4 whole entry): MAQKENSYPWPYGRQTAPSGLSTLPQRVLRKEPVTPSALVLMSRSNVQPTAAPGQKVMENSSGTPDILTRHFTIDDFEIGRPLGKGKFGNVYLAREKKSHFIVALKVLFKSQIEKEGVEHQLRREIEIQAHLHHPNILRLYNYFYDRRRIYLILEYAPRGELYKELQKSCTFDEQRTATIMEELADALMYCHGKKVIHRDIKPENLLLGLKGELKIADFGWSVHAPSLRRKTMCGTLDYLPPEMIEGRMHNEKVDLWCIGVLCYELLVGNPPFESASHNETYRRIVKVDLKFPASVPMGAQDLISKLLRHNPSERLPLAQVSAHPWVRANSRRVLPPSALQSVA

On to `CCOc1cc2c(ccc[n+]2[O-])cc1Nc1n[nH]c2cc([C@@H]3C[C@@]34C(=O)Nc3ccc(OC)cc34)ccc12` [Example 12, 7-ethoxy-6-((6-((1R,2S)-5′-methoxy-2′-oxospiro[cyclopropane-1,3′-indolin]-2-yl)-1H-indazol-3-yl)amino)quinoline 1-oxide], for which the IC50 was 1100 nM in the assay on CHP134 and 3.1 nM at human recombinant PLK4. For the same compound, the “[Aurora B IC50 (nM)]/[PLK4 IC50 (nM)]” value in assay [1] was 810.

Turning to `COc1ccc2c(c1)[C@]1(C[C@H]1c1ccc3c(Nc4cc(-c5cnn(CC(F)F)c5)cnc4OC)n[nH]c3c1)C(=O)N2` [Example 46, (1R,2S)-2-(3-((5-(1-(2,2-difluoroethyl)-1H-pyrazol-4-yl)-2-methoxypyridin-3-yl)amino)-1H-indazol-6-yl)-5′-methoxyspiro[cyclopropane-1,3′-indolin]-2′-one], the half-inhibitory concentration (IC50) with CHP134 is 370 nM; on human recombinant PLK4, 1.25 nM. Further, the “[Aurora B IC50 (nM)]/[PLK4 IC50 (nM)]” value in assay [1] came to 469.6557.

Consider `COc1ccc2c(c1)[C@]1(C[C@H]1c1ccc3c(Nc4nc(-c5ncco5)cnc4OC)n[nH]c3c1)C(=O)N2` [Example 19, (1R,2S)-5′-methoxy-2-(3-{[3-methoxy-6-(1,3-oxazol-2-yl)pyrazin-2-yl]amino}-1H-indazol-6-yl)spiro[cyclopropane-1,3′-indol]-2′(1′H)-one], for which the values for the IC50 in the assay on CHP134 and at human recombinant PLK4 were 170 nM and 0.99 nM, respectively. Besides, in assay [1], the “[Aurora B IC50 (nM)]/[PLK4 IC50 (nM)]” value was 460.

In the case of `CCOc1ncc(-c2nccs2)cc1Nc1n[nH]c2cc([C@@H]3C[C@@]34C(=O)Nc3ccc(OC)cc34)ccc12` [Example 41, (1R,2S)-2-(3-{[2-ethoxy-5-(1,3-thiazol-2-yl)pyridin-3-yl]amino}-1H-indazol-6-yl)-5′-methoxyspiro[cyclopropane-1,3′-indol]-2′(1′H)-one], the IC50 amounted to 131 nM with CHP134 and 0.722 nM on human recombinant PLK4. Also, the “[Aurora B IC50 (nM)]/[PLK4 IC50 (nM)]” value in assay [1] turned out to be 8707.7562.

Take `COc1ccc2c(c1)[C@]1(C[C@H]1c1ccc3c(Nc4cc(-c5cnn(C)c5)ccc4OC)n[nH]c3c1)C(=O)N2` [Example 11, (1R,2S)-5′-methoxy-2-{3-[2-methoxy-5-(1-methyl-1H-pyrazol-4-yl)anilino]-1H-indazol-6-yl}spiro[cyclopropane-1,3′-indol]-2′(1′H)-one]: the IC50 in the assay on CHP134 turned out to be 110 nM; on human recombinant PLK4, 0.52 nM. Further, in assay [1], the “[Aurora B IC50 (nM)]/[PLK4 IC50 (nM)]” value is 1051.5384.

Regarding `COc1ccc2c(c1)[C@]1(C[C@H]1c1ccc3c(Nc4cc(-c5cnn(CC(F)F)c5)ccc4OC)n[nH]c3c1)C(=O)N2` [Example 39, (1R,2S)-2-(3-{5-[1-(2,2-difluoroethyl)-1H-pyrazol-4-yl]-2-methoxyanilino}-1H-indazol-6-yl)-5′-methoxyspiro[cyclopropane-1,3′-indol]-2′(1′H)-one], the IC50 in the assay on CHP134 amounted to 202 nM; at human recombinant PLK4 it was 1.93 nM. Moreover, in assay [1], the “[Aurora B IC50 (nM)]/[PLK4 IC50 (nM)]” value was determined as 764.1.

With `CCOc1cc(S(C)(=O)=O)ccc1Nc1n[nH]c2cc([C@@H]3C[C@@]34C(=O)N(C)c3ccc(OC)cc34)ccc12` [Example 23, (1R,2S)-2-{3-[2-ethoxy-4-(methanesulfonyl)anilino]-1H-indazol-6-yl}-5′-methoxy-1′-methylspiro[cyclopropane-1,3′-indol]-2′(1′H)-one], the half-inhibitory concentration (IC50) in the assay with CHP134 amounted to 111 nM; on human recombinant PLK4, 1.41 nM. Besides, the “[Aurora B IC50 (nM)]/[PLK4 IC50 (nM)]” value in assay [1] is on record as 1017.

In the case of `CCOc1cnc(-c2nccs2)cc1Nc1n[nH]c2cc([C@@H]3C[C@@]34C(=O)Nc3ccc(OC)cc34)ccc12` [Example 34, (1R,2S)-2-(3-{[5-ethoxy-2-(1,3-thiazol-2-yl)pyridin-4-yl]amino}-1H-indazol-6-yl)-5′-methoxyspiro[cyclopropane-1,3′-indol]-2′(1′H)-one], the IC50 with CHP134 came to 139 nM; on human recombinant PLK4, 1.07 nM. The “[Aurora B IC50 (nM)]/[PLK4 IC50 (nM)]” value in assay [1] is given as 46598.3224.

With `COc1ccc2c(c1)[C@]1(C[C@H]1c1ccc3c(Nc4cc5c(cc4OC)S(=O)(=O)CC5)n[nH]c3c1)C(=O)N2` [Example 1, 6-methoxy-5-({6-[(1R,2S)-5′-methoxy-2′-oxo-1′,2′-dihydrospiro[cyclopropane-1,3′-indol]-2-yl]-1H-indazol-3-yl}amino)-2,3-dihydro-1H-1-benzothiophene-1,1-dione], the half-inhibitory concentration (IC50) came to 242 nM in the assay with CHP134 and 0.797 nM at human recombinant PLK4. Also, the “[Aurora B IC50 (nM)]/[PLK4 IC50 (nM)]” value in assay [1] is 791.6196.

Consider `COc1ccc2c(c1)[C@]1(C[C@H]1c1ccc3c(Nc4ccc(S(C)(=O)=O)cc4OC)n[nH]c3c1)C(=O)N2` [Example 2, (1R,2S)-2-{3-[4-(methanesulfonyl)-2-methoxyanilino]-1H-indazol-6-yl}-5′-methoxyspiro[cyclopropane-1,3′-indol]-2′(1′H)-one], for which the values for the IC50 in the assay with CHP134 and on human recombinant PLK4 were 88.9 nM and 0.576 nM, respectively. Also, the “[Aurora B IC50 (nM)]/[PLK4 IC50 (nM)]” value in assay [1] stood at 229.2462.

Take `COc1ccc2c(c1)[C@]1(C[C@H]1c1ccc3c(Nc4cc(-c5cocn5)ccc4OC)n[nH]c3c1)C(=O)N2` [Example 16, (1R,2S)-5′-methoxy-2-{3-[2-methoxy-5-(1,3-oxazol-4-yl)anilino]-1H-indazol-6-yl}spiro[cyclopropane-1,3′-indol]-2′(1′H)-one]: the IC50 in the assay with CHP134 stood at 160 nM; at human recombinant PLK4, 0.894 nM. Besides, the “[Aurora B IC50 (nM)]/[PLK4 IC50 (nM)]” value in assay [1] is on record as 730.6487.

For `COc1ccc2c(c1)[C@]1(C[C@H]1c1ccc3c(Nc4cc(-c5nnn(C)n5)ccc4OC)n[nH]c3c1)C(=O)N2` [Example 21, (1R,2S)-5′-methoxy-2-{3-[2-methoxy-5-(2-methyl-2H-tetrazol-5-yl)anilino]-1H-indazol-6-yl}spiro[cyclopropane-1,3′-indol]-2′(1′H)-one], the IC50 in the assay with CHP134 was 400 nM; at human recombinant PLK4 it was 2.6 nM. The “[Aurora B IC50 (nM)]/[PLK4 IC50 (nM)]” value in assay [1] is reported as 990.

On to `CCOc1ncc(-c2nccs2)nc1Nc1n[nH]c2cc([C@@H]3C[C@@]34C(=O)Nc3ccc(OC)cc34)ccc12` [Example 35, (1R,2S)-2-(3-{[3-ethoxy-6-(1,3-thiazol-2-yl)pyrazin-2-yl]amino}-1H-indazol-6-yl)-5′-methoxyspiro[cyclopropane-1,3′-indol]-2′(1′H)-one], for which the results for the IC50 in the assay with CHP134 and on human recombinant PLK4 were 13.8 nM and 0.338 nM, respectively. In addition, the “[Aurora B IC50 (nM)]/[PLK4 IC50 (nM)]” value in assay [1] is listed as 2740.5325.

With `CCS(=O)(=O)c1ccc(Nc2n[nH]c3cc([C@@H]4C[C@@]45C(=O)Nc4ccc(OC)cc45)ccc23)c(OC)c1` [Example 5, (1R,2S)-2-{3-[4-(ethanesulfonyl)-2-methoxyanilino]-1H-indazol-6-yl}-5′-methoxyspiro[cyclopropane-1,3′-indol]-2′(1′H)-one], the figures for the IC50 in the assay on CHP134 and on human recombinant PLK4 were 39.1 nM and 0.708 nM, respectively. In addition, in assay [1], the “[Aurora B IC50 (nM)]/[PLK4 IC50 (nM)]” value came out at 238.2702.

As for `COc1ccc2c(c1)[C@]1(C[C@H]1c1ccc3c(Nc4ccc(C(C)=O)cc4OC)n[nH]c3c1)C(=O)N2` [Example 3, (1R,2S)-2-[3-(4-acetyl-2-methoxyanilino)-1H-indazol-6-yl]-5′-methoxyspiro[cyclopropane-1,3′-indol]-2′(1′H)-one], the values for the IC50 in the assay with CHP134 and at human recombinant PLK4 were 308 nM and 2.76 nM, respectively. Further, the “[Aurora B IC50 (nM)]/[PLK4 IC50 (nM)]” value in assay [1] was determined as 256.2681.

Consider `COc1ccc2c(c1)[C@]1(C[C@H]1c1ccc3c(Nc4nc(-c5ncco5)ccc4OC)n[nH]c3c1)C(=O)N2` [Example 4, (1R,2S)-5′-methoxy-2-(3-{[3-methoxy-6-(1,3-oxazol-2-yl)pyridin-2-yl]amino}-1H-indazol-6-yl)spiro[cyclopropane-1,3′-indol]-2′(1′H)-one], for which the IC50 with CHP134 worked out at 53.1 nM; at human recombinant PLK4 it was 0.682 nM. The “[Aurora B IC50 (nM)]/[PLK4 IC50 (nM)]” value in assay [1] was 549.2668.

As usually defined, the IC50 is the concentration at which inhibition is half-maximal.
